For assay [1], the system named is γ-secretase complex proteins. In words: γ-secretase complex protein levels by Western blot in CHO cell lines. It counts as cell-based, Chinese Hamster. The protocol:
(§1) Chinese Hamster Ovary (CHO) cells expressing APP751 and BACE (CAB), CHO cells expressing full-length APP and wild-type PS1 (CHO-APP751/PS1) or expressing C99 and wild-type PS1 (CHO-CC99/PS1), H4 human neuroglioma cells expressing APP751 (H4-APP751), mouse embryonic fibroblast (MEF), embryonic stem (ES) cells, and human epithelial A431 cells were grown as described previously (Marambaud, P. et al., Embo J 21, 1948-56 (2002); Cai, H. et al., Nat Neurosci 4, 233-4 (2001); Sato, N. et al., Nat Cell Biol 2, 863-70 (2000); Puglielli, L., Ellis, B. C., Saunders, A. J. & Kovacs, D. M., J Biol Chem 278, 19777-83 (2003); Wolfe, M. S. et al., Nature 398, 513-7 (1999)). For the induction of apoptosis, we used staurosporine or etoposide (Calbiochem (EMD Biosciences, San Diego, Calif.)). For Aβ measurements, cells were seeded at the density of 0.5×10^6 cells per well in 6 well plates. After 48 hours, cells were treated with either STS (1 μM) for 6 hours. In order to inhibit caspase activation a sister plate of cells was pre-treated with zVAD ([…], Enzyme Systems Products) for 1 hour before STS treatment. For time-course experiments, cells were seeded at the density of 2×10^6 cells per 100 mm dish and treated with STS (1 μM) or etoposide (100 μg/mL). At different time points (0, 3, 6, 9, 12 and 24 hours), the cells were scraped, centrifuged and then lysed in buffer containing 1% NP40. […]

The test system of a further assay is β-secretase. The assay is described as follows: C99 levels by Western blot (WO2) in CAB cells. The settings on record: STS-induced apoptosis, CHO cells expressing APP751 and BACE (CAB). It is filed as cell-based, Chinese Hamster. The protocol: as §1
(In western blotting, separated proteins are transferred to a membrane and probed.)

In a further assay the test system is E-cadherin. The assay is described as follows: E-cadherin proteolysis in A431 cells during STS-induced apoptosis (Western blot, C36 antibody). It counts as cell-based, human. The note with it: zVAD-FMK 100 μM pre-incubated 30 min, then STS 6 hours. The protocol: FIG. 11 provides digitized images and graphs showing that apoptosis enhances γ-secretase activity and levels of γ-secretase complex proteins. FIG. 11a: Apoptosis was induced in CAB, CHO-CC99/PS1 and CHO-APP 751/PS1 by STS treatment for 6 hours with or without zVAD (100 μM). Secreted Aβ1−total was measured by ELISA. […] Each bar represents the mean and SD of quadruplicate determinations. FIG. 11b: Western blot analysis with the antibody, A8717, detected endogenous APP-FL and overexpressed C99 in CHO-CC99/PS1cells, while overexpressed APP-FL and C83 were detected in CHO-APP751/PS1 cells. FIG. 11c: A431 human epithelial cells were pre-incubated for 30 min in the absence (−) or presence (+) of zVAD-FMK (100 μM), L-685,458 (0.5 μM) or GM6001 (2.5 μM). Cells were then treated with STS for 6 hours to induce apoptosis, and cell extracts were probed with anti-E-cadherin C36 antibody. FIG. 11d: Protein levels of γ-secretase complex components were monitored by Western blotting employing the anti-nicastrin, Ab14, PNT2, H2D2 antibodies. Densitometry analysis was performed using NIH image software. Each bar represents the mean and SEM of at least three experiments. FIG. 11e: Nicastrin was transiently transfected in the A431 cells. Western blot analysis for E-cadherin and γ-secretase complex component was performed as in FIG. 11c and FIG. 11d β-tubulin was used as loading control.
To confirm that apoptosis/caspase activation increases γ-secretase activity, we next examined the proteolysis of E-cadherin, another γ-secretase substrate (Marambaud, P. et al., Embo J21, 1948-56 (2002)) during apoptosis. We confirmed that caspase activation enhanced the production of E-Cad/CTF1 (Steinhusen, U. et al., J Biol Chem 276, 4972-80 (2001)), E-Cad/CTF2 (Marambaud, P. et al., 2002) (˜2- and 3-fold increase by densitometry analysis, respectively), and generated E-Cad/CTF3 (Marambaud, P. et al., 2002) (FIG. 11c). […]

For assay [2], the system named is γ-secretase complex proteins. The assay is described as follows: γ-secretase complex protein levels by Western blot in H4 cells. It counts as cell-based, human. The settings on record: zVAD treatment. The protocol: Protein levels of PS1, nicastrin, Pen2 and Aph1A (components of the γ-secretase complex) were determined by Western blot (WB) analysis in H4 cells. […] The immature form of nicastrin appeared to be increased earlier (6 hrs) concurrently with caspase-3 activation (FIG. 5A). Furthermore, PS1-NTF, PS1-CTF, Pen2 and Aph1A were also up regulated (FIG. 5A). STS treatment also led to the generation of a caspase-mediated fragment of PS1-CTF (indicated by an arrow as a PS1-CTF). […] As a control for protein loading, the same blot was reprobed with an anti-Cu, Zn-SOD Ab showing that Cu, Zn-SOD protein levels were not increased.

Structures are written as SMILES. Where a SMILES comes first, the peptide text is derived from it. The star is where a group is joined. Cbz = O=C(OCc1ccccc1)*; CH2F = FC*

For the compound `CN[C@@H]1C[C@H]2O[C@@](C)([C@@H]1OC)n1c3ccccc3c3c4c(c5c6ccccc6n2c5c31)C(=O)NC4` [STS, staurosporine], the “nicastrin and Pen2 protein levels” value in assay [1] (STS treatment, CHO cells overexpressing APP751 and PS1WT and mouse fibroblasts) is reported as “up-regulated”. Moreover, the “endogenous nicastrin protein levels” value in assay [1] (six hours after STS treatment, CAB cells) is “increase”. Further, the “levels of C99” value in the assay on β-secretase is recorded as “increased”.
Turning to `COC(=O)C[C@H](NC(=O)[C@H](C)NC(=O)[C@@H](NC(=O)OCc1ccccc1)C(C)C)C(=O)CF` [zVAD] (Cbz-Val-Ala-Asp(OMe)-CH2F), in the assay with E-cadherin, the “generation of E-Cad/CTF3” value is recorded as “inhibited”. In assay [2], the “upregulation of γ-secretase complex proteins during STS-induced apoptosis” value is listed as “prevented upregulation”.
